These are literature values, as cited in patent US20230181491A1, “COMPOSITIONS AND METHODS FOR THE TREATMENT AND MANAGEMENT OF INFLAMMATION USING HYDROXYNORKETAMINE” (SPIRIFY PHARMA INC., priority 2020, published 2023).

Counter-ions that a name gives are not always drawn.

The test system of the data set is rats. The following applies: cited from earlier work.
On to `CNC1(c2ccccc2Cl)CCCCC1=O` (racemic) [(R,S)-ketamine hydrochloride], for which the “spontaneous locomotor activity during the postanesthetic recovery phase” value is given as “increased spontaneous locomotor activity”.

Regarding `NC1(c2ccccc2Cl)CCCCC1=O` (racemic) [(R,S)-norketamine], the “spontaneous locomotor activity during the postanesthetic recovery phase” value was “increased spontaneous locomotor activity”.

With (2R,6R;2S,6S)-HNK, the “spontaneous locomotor activity during the postanesthetic recovery phase” value is given as “no anesthetic or hyperlocomotor effects”.
